The text below walks through data of US20160158317A1, “Antimicrobial Peptide Variants and Polynucleotides Encoding Same” (Adenium Biotech A/S, priority 2010, published 2016).

Molecules are shown by their SMILES. Where a SMILES comes first, the peptide text is derived from it. Bridges are numbered along the chain shown (N, C = ends).

A short description of this data set: Determination of the protein binding (90% serum, 30 kDa filter, HPLC). As to conditions: serum. It is filed as in vitro ADME. The method, then: Protein binding assays were performed as follows. The purified peptides were mixed with 90% serum and centrifuged through a 30 kDa filter. The ultra-filtrate and the non filtrated serum samples were quantified by HPLC measurements and the protein binding was subsequently calculated.
Regarding `CC(C)[C@@H]1NC(=O)CNC(=O)[C@H](CC(N)=O)NC(=O)[C@H](CCCNC(=N)N)NC(=O)[C@H](Cc2ccc(O)cc2)NC(=O)[C@H](Cc2c[nH]cn2)NC(=O)[C@@H]2CSSC[C@H](NC(=O)[C@H](C(C)C)NC(=O)[C@H](CCCNC(=N)N)NC1=O)C(=O)N[C@@H](Cc1ccc(O)cc1)C(=O)N[C@@H](CCCNC(=N)N)C(=O)N[C@@H](CCCNC(=N)N)C(=O)N[C@H](C(=O)N[C@@H](CC(N)=O)C(=O)O)CSSC[C@H](NC(=O)[C@H](Cc1ccccc1)NC(=O)CN)C(=O)N[C@@H](Cc1c[nH]c3ccccc13)C(=O)N[C@@H](Cc1ccc(O)cc1)C(=O)N[C@@H](C(C)C)C(=O)N2` [compound 23] (H-GFCWYVCHYRNGVRVCYRRCN-OH; disulfide 3-20, 7-16 (inferred); N-terminus and C-terminus assumed), the free fraction (fraction unbound) is 0.02.

With `CC(C)[C@@H]1NC(=O)CNC(=O)[C@H](CC(N)=O)NC(=O)[C@H](CCCNC(=N)N)NC(=O)[C@H](Cc2ccc(O)cc2)NC(=O)[C@H](C(C)C)NC(=O)[C@@H]2CSSC[C@H](NC(=O)[C@H](Cc3c[nH]cn3)NC(=O)[C@H](CCCNC(=N)N)NC1=O)C(=O)N[C@@H](Cc1ccc(O)cc1)C(=O)N[C@@H](CCCNC(=N)N)C(=O)N[C@@H](CCCNC(=N)N)C(=O)N[C@H](C(=O)N[C@@H](CC(N)=O)C(=O)O)CSSC[C@H](NC(=O)[C@H](Cc1ccccc1)NC(=O)CN)C(=O)N[C@@H](Cc1c[nH]c3ccccc13)C(=O)N[C@@H](Cc1ccc(O)cc1)C(=O)N[C@@H](C(C)C)C(=O)N2` [compound 39] (H-GFCWYVCVYRNGVRHCYRRCN-OH; disulfide 3-20, 7-16 (inferred); N-terminus and C-terminus assumed), the free fraction (fraction unbound) was 0.02.

Molecule `CC(C)[C@@H]1NC(=O)CNC(=O)[C@H](CC(N)=O)NC(=O)[C@H](CCCNC(=N)N)NC(=O)[C@H](CCCCN)NC(=O)[C@H](C(C)C)NC(=O)[C@@H]2CSSC[C@H](NC(=O)[C@H](C(C)C)NC(=O)[C@H](CCCNC(=N)N)NC1=O)C(=O)N[C@@H](Cc1c[nH]cn1)C(=O)N[C@@H](CCCNC(=N)N)C(=O)N[C@@H](CCCNC(=N)N)C(=O)N[C@H](C(=O)N[C@@H](CC(N)=O)C(=O)O)CSSC[C@H](NC(=O)[C@H](Cc1ccccc1)NC(=O)CN)C(=O)N[C@@H](Cc1c[nH]c3ccccc13)C(=O)N[C@@H](CC(N)=O)C(=O)N[C@@H](C(C)C)C(=O)N2` [compound 305] (H-GFCWNVCVKRNGVRVCHRRCN-OH; disulfide 3-20, 7-16 (inferred); N-terminus and C-terminus assumed) had a free fraction (fraction unbound) of 0.24.

Turning to `CC(C)[C@@H]1NC(=O)CNC(=O)[C@H](CC(N)=O)NC(=O)[C@H](CCCNC(=N)N)NC(=O)[C@H](Cc2ccc(O)cc2)NC(=O)[C@H](Cc2ccc(O)cc2)NC(=O)[C@@H]2CSSC[C@H](NC(=O)[C@H](C(C)C)NC(=O)[C@H](CCCNC(=N)N)NC1=O)C(=O)N[C@@H](Cc1ccc(O)cc1)C(=O)N[C@@H](CCCNC(=N)N)C(=O)N[C@@H](CCCNC(=N)N)C(=O)N[C@H](C(=O)N[C@@H](CC(N)=O)C(=O)O)CSSC[C@H](NC(=O)[C@H](Cc1ccccc1)NC(=O)CN)C(=O)N[C@@H](Cc1c[nH]c3ccccc13)C(=O)N[C@@H](Cc1ccc(O)cc1)C(=O)N[C@@H](C(C)C)C(=O)N2` [compound 25] (H-GFCWYVCYYRNGVRVCYRRCN-OH; disulfide 3-20, 7-16 (inferred); N-terminus and C-terminus assumed), the free fraction (fraction unbound) is 0.02.

Turning to `CC(C)[C@@H]1NC(=O)CNC(=O)[C@H](CC(N)=O)NC(=O)[C@H](CCCNC(=N)N)NC(=O)[C@H](Cc2ccc(O)cc2)NC(=O)[C@H](C(C)C)NC(=O)[C@@H]2CSSC[C@H](NC(=O)[C@H](C(C)C)NC(=O)[C@H](CCCNC(=N)N)NC1=O)C(=O)N[C@@H](CC(N)=O)C(=O)N[C@@H](CCCNC(=N)N)C(=O)N[C@@H](CCCNC(=N)N)C(=O)N[C@H](C(=O)N[C@@H](CC(N)=O)C(=O)O)CSSC[C@H](NC(=O)[C@H](Cc1ccccc1)NC(=O)CN)C(=O)N[C@@H](Cc1c[nH]c3ccccc13)C(=O)N[C@@H](Cc1ccc(O)cc1)C(=O)N[C@@H](C(C)C)C(=O)N2` [compound 48] (H-GFCWYVCVYRNGVRVCNRRCN-OH; disulfide 3-20, 7-16 (inferred); N-terminus and C-terminus assumed), the fraction unbound is 0.32.

For the molecule `CC(C)[C@@H]1NC(=O)CNC(=O)[C@H](CC(N)=O)NC(=O)[C@H](CCCNC(=N)N)NC(=O)[C@H](Cc2ccc(O)cc2)NC(=O)[C@H](C(C)C)NC(=O)[C@@H]2CSSC[C@H](NC(=O)[C@H](C(C)C)NC(=O)[C@H](CCCNC(=N)N)NC1=O)C(=O)N[C@@H](CO)C(=O)N[C@@H](CCCNC(=N)N)C(=O)N[C@@H](CCCNC(=N)N)C(=O)N[C@H](C(=O)N[C@@H](CC(N)=O)C(=O)O)CSSC[C@H](NC(=O)[C@H](Cc1ccccc1)NC(=O)CN)C(=O)N[C@@H](Cc1ccc(O)cc1)C(=O)N[C@@H](CCCNC(=N)N)C(=O)N[C@@H](C(C)C)C(=O)N2` [compound 211] (H-GFCYRVCVYRNGVRVCSRRCN-OH; disulfide 3-20, 7-16 (inferred); N-terminus and C-terminus assumed), the fraction unbound is 0.04.

`CC(C)[C@@H]1NC(=O)[C@H](CC(N)=O)NC(=O)[C@H](Cc2c[nH]c3ccccc23)NC(=O)[C@@H](NC(=O)[C@H](Cc2ccccc2)NC(=O)CN)CSSC[C@@H](C(=O)N[C@@H](CC(N)=O)C(=O)O)NC(=O)[C@H](CCCNC(=N)N)NC(=O)[C@H](CCCNC(=N)N)NC(=O)[C@H](Cc2ccc(O)cc2)NC(=O)[C@@H]2CSSC[C@H](NC1=O)C(=O)N[C@@H](C)C(=O)N[C@@H](Cc1ccc(O)cc1)C(=O)N[C@@H](CCCNC(=N)N)C(=O)N[C@@H](CC(N)=O)C(=O)NCC(=O)N[C@@H](CCCCN)C(=O)N[C@@H](CCCNC(=N)N)C(=O)N[C@@H](C)C(=O)N2` [compound 411] (H-GFCWNVCAYRNGKRACYRRCN-OH; disulfide 3-20, 7-16 (inferred); N-terminus and C-terminus assumed): the free fraction (fraction unbound) was 0.14.

On to `CC(C)[C@@H]1NC(=O)[C@H](CCCNC(=N)N)NC(=O)[C@H](Cc2c[nH]c3ccccc23)NC(=O)[C@@H](NC(=O)[C@H](Cc2ccccc2)NC(=O)CN)CSSC[C@@H](C(=O)N[C@@H](CC(N)=O)C(=O)O)NC(=O)[C@H](CCCNC(=N)N)NC(=O)[C@H](CCCNC(=N)N)NC(=O)[C@H](Cc2ccc(O)cc2)NC(=O)[C@@H]2CSSC[C@H](NC1=O)C(=O)N[C@@H](C)C(=O)N[C@@H](Cc1ccc(O)cc1)C(=O)N[C@@H](CCCCN)C(=O)N[C@@H](CC(N)=O)C(=O)NCC(=O)N[C@@H](CCCCN)C(=O)N[C@@H](CCCNC(=N)N)C(=O)N[C@@H](CO)C(=O)N2` [compound 523] (H-GFCWRVCAYKNGKRSCYRRCN-OH; disulfide 3-20, 7-16 (inferred); N-terminus and C-terminus assumed), for which the fraction unbound is 0.1.

`CC(C)[C@@H]1NC(=O)CNC(=O)[C@H](CCCNC(=N)N)NC(=O)[C@H](CCCNC(=N)N)NC(=O)[C@H](Cc2ccc(O)cc2)NC(=O)[C@H](C(C)C)NC(=O)[C@@H]2CSSC[C@H](NC(=O)[C@H](C(C)C)NC(=O)[C@H](CCCNC(=N)N)NC1=O)C(=O)N[C@@H](Cc1c[nH]cn1)C(=O)N[C@@H](CCCNC(=N)N)C(=O)N[C@@H](CCCNC(=N)N)C(=O)N[C@H](C(=O)N[C@@H](CC(N)=O)C(=O)O)CSSC[C@H](NC(=O)[C@H](Cc1ccccc1)NC(=O)CN)C(=O)N[C@@H](Cc1c[nH]c3ccccc13)C(=O)N[C@@H](CC(N)=O)C(=O)N[C@@H](C(C)C)C(=O)N2` [compound 234] (H-GFCWNVCVYRRGVRVCHRRCN-OH; disulfide 3-20, 7-16 (inferred); N-terminus and C-terminus assumed) showed a fraction unbound of 0.14.

For `CC(C)[C@@H]1NC(=O)CNC(=O)[C@H](CC(N)=O)NC(=O)[C@H](CCCNC(=N)N)NC(=O)[C@H](Cc2ccc(O)cc2)NC(=O)[C@H](C(C)C)NC(=O)[C@@H]2CSSC[C@H](NC(=O)[C@H](CO)NC(=O)[C@H](CCCNC(=N)N)NC1=O)C(=O)N[C@@H](Cc1ccc(O)cc1)C(=O)N[C@@H](CCCNC(=N)N)C(=O)N[C@@H](CCCNC(=N)N)C(=O)N[C@H](C(=O)N[C@@H](CC(N)=O)C(=O)O)CSSC[C@H](NC(=O)[C@H](Cc1ccccc1)NC(=O)CN)C(=O)N[C@@H](Cc1c[nH]c3ccccc13)C(=O)N[C@@H](Cc1ccc(O)cc1)C(=O)N[C@@H](C(C)C)C(=O)N2` [compound 44] (H-GFCWYVCVYRNGVRSCYRRCN-OH; disulfide 3-20, 7-16), the fraction unbound was 0.15.

Molecule `CC(C)[C@@H]1NC(=O)[C@H](CCCNC(=N)N)NC(=O)[C@H](Cc2c[nH]c3ccccc23)NC(=O)[C@@H](NC(=O)[C@H](Cc2ccccc2)NC(=O)CN)CSSC[C@@H](C(=O)N[C@@H](CC(N)=O)C(=O)O)NC(=O)[C@H](CCCNC(=N)N)NC(=O)[C@H](CCCNC(=N)N)NC(=O)[C@H](Cc2ccc(O)cc2)NC(=O)[C@@H]2CSSC[C@H](NC1=O)C(=O)N[C@@H](C)C(=O)N[C@@H](Cc1ccc(O)cc1)C(=O)N[C@@H](CO)C(=O)N[C@@H](CC(N)=O)C(=O)NCC(=O)N[C@@H](CCCCN)C(=O)N[C@@H](CCCNC(=N)N)C(=O)N[C@@H](C(C)C)C(=O)N2` [compound 425] (H-GFCWRVCAYSNGKRVCYRRCN-OH; disulfide 3-20, 7-16 (inferred); N-terminus and C-terminus assumed) gave a fraction unbound of 0.31.

For `CC(C)[C@@H]1NC(=O)CNC(=O)[C@H](CC(N)=O)NC(=O)[C@H](CCCNC(=N)N)NC(=O)[C@H](CCCNC(=N)N)NC(=O)[C@H](C(C)C)NC(=O)[C@@H]2CSSC[C@H](NC(=O)[C@H](C(C)C)NC(=O)[C@H](CCCNC(=N)N)NC1=O)C(=O)N[C@@H](Cc1c[nH]cn1)C(=O)N[C@@H](CCCNC(=N)N)C(=O)N[C@@H](CCCNC(=N)N)C(=O)N[C@H](C(=O)N[C@@H](CC(N)=O)C(=O)O)CSSC[C@H](NC(=O)[C@H](Cc1ccccc1)NC(=O)CN)C(=O)N[C@@H](Cc1c[nH]c3ccccc13)C(=O)N[C@@H](CCCNC(=N)N)C(=O)N[C@@H](C(C)C)C(=O)N2` [compound 335] (H-GFCWRVCVRRNGVRVCHRRCN-OH; disulfide 3-20, 7-16 (inferred); N-terminus and C-terminus assumed), the fraction unbound is 0.05.
